Results reported in US11647993B2, “Oral fluid collector” (Research Triangle Institute, priority 2017, dated 2023).
Like-named read-outs stand apart in the source and are kept apart here.

Tests used:
[1] = aqueous solution (cocaine); labile esters (heroin, 6-AM); cited from earlier work
[2] = Stability of BZE in matrices over pH; type: physicochemical; conditions: most matrices, broad range of pH values
From the text: Based on the above discussion, the stabilization of parent cocaine in a matrix such as oral fluid, which contains esterases possibly derived from crevicular fluid, is challenging unless appropriate buffering at a pH where parent cocaine is stable is employed.

[3] = tetrahydrate soluble in hot water; cited from earlier work
pH of greatest stability = conditions: parent THC by itself
[4] = oral fluid, over 14 days, cited from earlier work
[5] = Stability of parent THC spiked into neat human oral fluid, with or without the reagent component; type: physicochemical
[6] = two collection devices, cited from earlier work

## CC(=O)Oc1ccc2c3c1O[C@H]1[C@@H](OC(C)=O)C=C[C@H]4[C@@H](C2)N(C)CC[C@@]341 [heroin, diacetylmorphine]
[1]
  pH of greatest stability / stabilization: ~5.0

## CN1[C@H]2CC[C@@H]1[C@@H](C(=O)O)[C@@H](OC(=O)c1ccccc1)C2 [BZE, benzoylecgonine]
[2]
  stability: stable
[3]
  water solubility: considerable water solubility

## CCCCCc1cc(O)c2c(c1)OC(C)(C)[C@@H]1CCC(C)=C[C@@H]21 [THC, Δ^9-tetrahydrocannabinol]
pH of greatest stability
  pH at which most stable: ~7.5
[4]; in the dark at room temperature
  losses of THC: 20%
[4]; under fluorescent lights
  losses of THC: greater than 50%
[5]
  loss of THC: substantial loss

## COC(=O)[C@H]1[C@@H](OC(=O)c2ccccc2)C[C@@H]2CC[C@H]1N2C [cocaine]
[1]
  pH of greatest stability / stabilization: ~5
[6]; within 48 hours
  cocaine degraded to BZE: 26%
[6]; within 72 hours
  cocaine degraded to BZE: 41%
